Data reported in patent US20210069151A1, “[…] PHARMACEUTICAL COMBINATION OF THE ACTIVE ENANTIOMER S-KETOROLAC TR[…] TRAMADOL CHLORHYDRATE” (priority 2018, published 2021).
“Also recorded” adds a separate entry of the source.

Assays:
[1] = tested on: uric acid-induced gouty arthritis pain in the rat; assay: pain-induced functional impairment model in the rat (PIFIR), antinociceptive effects; assay type: in vivo, male Wistar rats; conditions: for Maximum efficacy (ABC: X ± E.E.): ABC of the FI % temporal curve over 4 h, at the dose that generates the maximum efficacy (S-ketorolac tromethamine 3.16 mg/kg, tramadol chlorhydrate 56.23 mg/kg); for Relative efficacy: compared to S-ketorolac tromethamine (= 1.0); for antinociceptive effects, dose dependence: single acute oral administration, evaluated for 4 hours, tramadol 5.6 to 56.2 mg/kg, S-ketorolac tromethamine 0.01 to 3.16 mg/kg
Description: In order to determine the antinociceptive effects, male Wistar rats weighing between 180 and 200 g were employed. These were handled in accordance with the Official Mexican Norm (NOM-062-ZOO-1999) and in accordance with the general principles of lab animal care (NIH publication #85-23, revised in 1985). The minimum number of test animals were used (6 animals per experimental point for antinociceptive effects, motor coordination, and gastrointestinal damage, and 10 animals per experimental point for adverse effects: lethal dose 50). The animals were kept in a room with alternate cycles of light/darkness. Twelve hours before the antinociceptive tests, the food was withdrawn, and they only had free access to water. All of these experiments were conducted during the light phase.
The analgesics were dissolved or suspended in carboxymethyl cellulose at 0.5% and administered orally in a volume of 4 ml/kg.
This methodology is commonly known as “pain-induced functional impairment model in the rat” (PIFIR). This methodology was used to determine and compare the antinociceptive effects of these analgesics.
The methodology of the PIFIR experimental procedure is briefly described below: The animals were anesthetized in an anesthesia chamber saturated with isoflurane vapors. The gouty arthritis was induced by applying an intra-articular injection (i.art.) with 0.05 ml of uric acid suspended in mineral oil (at 30%) in the right hind limb, exactly in the femur-tibia-patella joint.
A 1 ml glass syringe with a No. 22, 4 mm long needle was used for the i.art. injection. Immediately afterward, an electrode was fixed on each hind limb in the middle of the plantar calluses. After the rats recovered from the anesthesia, they were placed in a 30 cm diameter stainless steel rotating cylinder. The cylinder was rotated at 4 rpm, forcing the rats to walk for 2 minutes every half hour for a total of 6.5 hours (2.5 h to generate the gouty arthritis and 4 h to evaluate the antinociceptive effects of the analgesics). The variable measured was the time of contact of each one of the hind limbs of the rats in the cylinder.
When the electrode and the cylinder make contact, a circuit closes, and the relationship between the time of contact of the extremity to which the uric acid was administered as compared to the one to which uric acid was not administered was registered in a computer. The percentage functionality indexes (FI %) are calculated with these variables. Once the total dysfunction (FI=0%) was produced due to the effect of the uric acid, the corresponding doses of each analgesic were administered individually or in combination.
The medium and standard error of the evaluation of the antinociceptive effects are presented in all of the graphics as from time “0,” which is the moment at which the arthritis is completely developed in the rat and is the precise moment of the administration of tramadol chlorhydrate and S-ketorolac tromethamine.
With the administration of these doses, the complete doses-responses of S-ketorolac tromethamine and tramadol chlorhydrate were plotted separately in order to perform a comparative analysis for efficacy and potency. In the case of tramadol chlorhydrate, the curves were obtained through a single and acute 4-hour administration in doses with algorithmic increases (of 5.6 to 56.2 mg/kg), (FIG. 1). The S-ketorolac tromethamine temporal curves were obtained through acute administration evaluated for 4 hours in doses with algorithmic increases (from 0.01 to 3.16 mg/kg).
After this, 24 different combinations of S-ketorolac tromethamine and tramadol chlorhydrate were analyzed in order to detect the type of interaction and the most significant combinations due to the degree of efficacy or the degree of antinociceptive potency.

[2] = background statement, cited from earlier work
[3] = pharmacological / analgesic potency relative to comparators (no method given); assay type: in vivo

| SMILES | Maximum efficacy (ABC: X ± E.E.) ([1]; po) [au] | Maximum efficacy (ABC: X ± E.E.) ([1]; po, listed as tramadol chlorhydrate) [au] | efficacy relative to that exhibited by S-ketorolac tromethamine ([1]; PIFIR, po) [%] | Relative efficacy ([1]; PIFIR, po) | antinociceptive effects, dose dependence [1] | potency ratio of the S (−) enantiomer ([2]; comparator not clearly printed) | analgesic effect relative to the racemic form [2] | potency relative to AA ([3]; times more potent than AA) [times] | potency relative to morphine ([3]; times more potent than morphine) [times] | potency relative to rac-ketorolac ([3]; times more potent than rac-ketorolac) [times] |
| --- | --- | --- | --- | --- | --- | --- | --- | --- | --- | --- |
| COc1cccc([C@@]2(O)CCCC[C@@H]2CN(C)C)c1.Cl (relative stereo) [Tramadol chlorhydrate, (1R,2R)-rel-2-[(dimethylamino)methyl]-1-(3-methoxyphenyl)cyclohexanol] | 216.7 ± 19.1 | 216.66 | 70 | 0.70 | doses-dependent antinociceptive effects; also recorded: antinociceptive effects that are dependent on the gouty arthritis-type pain dose |  |  |  |  |  |
| O=C(c1ccccc1)c1ccc2n1CC[C@@H]2C(=O)O [S-ketorolac tromethamine, 2-amino-2-hydroximethyl-1,3 propanediol (1:1) S-(−)-5-benzoyl-2,3-dihydro-1H-pyrrolizine-1-carboxylate] | 310.5 ± 13.5 |  |  | 1.0 | doses-dependent antinociceptive effects; also recorded: antinociceptive effects that are dependent on the gouty arthritis-type pain dose | approximately 60 times | almost double that of the racemic form | 1037 | 82 | 3.3 |
